Measurements published in article PMC7581722, “Tolerogenic Immunomodulation by PEGylated Antigenic Peptides” (Frontiers in Immunology, 2020).

Columns and labels:
[1] = tested on: Foxp3+ Tregs among OVA-TCR+ CD4+ cells; assay: Adoptive transfer of Treg-depleted CD4+ cells: de novo induction of Foxp3+ Tregs; assay type: in vivo, BALB/c mice; conditions: 5 µg i.v. or equimolar, 6 days; spleen, pLN, mLN, livLN; n = 3-7
Protocol: To investigate whether Tregs are expanded or induced de novo, purified CFSE-labeled CD4^+ CD25^- CD103^- T cells from DO11.10 mice were adoptively transferred i.v. into BALB/c mice. After 24 h, mice were treated by a single i.v. injection of PBS (control), unconjugated pOVA at a dose of 5 µg per mouse or equimolar amounts of PEGylated pOVA. On day 7, different lymphatic organs were isolated and OVA-specific CD4^+ T cells were identified by an anti-KJ1.26 antibody.
To investigate whether the increase of Treg frequency following pOVA-PEG20 treatment is due to de novo induction or to expansion of pre-existing Tregs, we transferred Treg-depleted OVA-specific CD4^+ T cells prior to vaccination with pOVA or pOVA-PEG20. […] The frequency of Foxp3^+ Tregs reached similar levels following pOVA and pOVA-PEG20 administration in both spleen and pLN, whereas pOVA-PEG20 increased the Treg frequency in mLN (trend) and the livLN (significant) compared to pOVA.
Figure 5 Administration of pOVA-PEG20 leads to de novo induction of Foxp3^+ Tregs. Treg-depleted CD4^+ T cells from DO11.10 mice were transferred into BALB/c mice 24 h prior to treatment with PBS (control), 5 µg of pOVA or equimolar amounts of pOVA-PEG20. Six days post peptide vaccination, spleen, pLN, mLN and livLN were isolated and Foxp3 expression was analyzed using flow cytometry. […]

OVA-specific Th1 cells = assay: Adoptive transfer of in vitro generated antigen-specific Th1 cells; assay type: in vivo; conditions: 5 µg i.v. or equimolar, 24 h after Th1 transfer, CFSE, n = 6
Protocol: CD4^+ T cells were isolated from DO11.10 mice via MACS-sorting as above and co-cultured 1:3 with APCs (CD4^- CD90^-) (final concentration: 2 x 10^6 cells/ml). Cells were incubated with 1 µg/ml of pOVA, IFN-γ (20 ng/ml) (R&D Systems, McKinley, USA), IL12 (5 ng/ml) (R&D), and anti-IL4-antibody (11B11, produced in house) (5 µg/ml). After 6 days, cells were harvested, and IFN-γ expression was assessed via flow cytometry.
5 × 10^6 purified polarized CFSE-labeled Th1 cells from DO11.10 mice were adoptively transferred i.v. into BALB/c mice. After 24 h, mice were treated by a single i.v. injection of PBS (control), unconjugated pOVA at a dose of 5 µg per mouse or equimolar amounts of PEGylated pOVA. On day 5, splenocytes were isolated, and OVA-specific Th1 cells were identified by an anti-KJ1.26 antibody.
To analyze these questions, in vitro generated OVA-specific Th1 effector cells ( Supplementary Figure 5 ) were transferred into BALB/c mice prior to peptide vaccination. Proliferation and expression of IFN-γ and Foxp3 were assessed on day 5.
Figure 9 pOVA-PEG20 vaccination in presence of pre-existing T effector cells. […] After four days, splenocytes were re-isolated and proliferation, IFN-γ and TNF production as well as Foxp3 expression was assessed using flow cytometry. […] (E, F) Absolute number of antigen-specific IFNγ or Foxp3^+ cells expressed as % of total CD4^+. […]

[2] = tested on: Foxp3+ regulatory T cells among OVA-TCR+ CD4+ T cells; assay: Adoptive transfer: Foxp3 expression of OVA-TCR+ CD4+ splenocytes after vaccination; assay type: in vivo, BALB/c mice
Protocol: Cell fixation, permeabilization, and intracellular Foxp3 staining were performed using the eFluor450 anti-mouse Foxp3 (eBioscience) staining set according to manufacturer’s instructions.
On day 0, 5 × 10^6 CFSE-labeled CD4^+ cells from DO11.10 were adoptively transferred intravenously (i.v.) into syngeneic BALB/c mice. After 24 hours, mice were treated by a single i.v. injection of PBS (control), unconjugated pOVA or equimolar amounts of PEG-conjugated pOVA as indicated. […] On day 7, splenocytes were isolated, and OVA-TCR^+ CD4^+ T cells were identified by an anti-KJ1.26 antibody, recognizing the OVA-specific TCR on transferred DO11.10 cells.
To assess the immunomodulatory effect of administration of different types of PEGylated pOVA, we analyzed the expression of Foxp3, the master transcription factor of Tregs and the cytokine profile of antigen-specific T cells upon vaccination.
CFSE-labeled CD4^+ cells from DO11.10 mice were transferred into BALB/c mice. After 24 h, mice received either PBS (control), indicated doses of pOVA or equimolar amounts of PEGylated peptides. After 6 days, Foxp3 expression was assessed using flow cytometry. Spleen cells were gated on OVA-TCR^+ CD4^+ T cells. (A) Representative FACS dot plots of Foxp3 expression following tolerization with pOVA or pOVA-PEG conjugates at a dose of 5 µg (based on peptide amount). (B) Dose response curve in vivo. […]

OVA-TCR+ CD4+ cells = assay: Adoptive transfer with additional LPS (inflammatory conditions); assay type: in vivo, BALB/c mice; conditions: 5 µg i.v. or equimolar + 50 µg LPS, 6 days
Protocol: (§1) On day 0, 5 × 10^6 CFSE-labeled CD4^+ cells from DO11.10 were adoptively transferred intravenously (i.v.) into syngeneic BALB/c mice. After 24 hours, mice were treated by a single i.v. injection of PBS (control), unconjugated pOVA or equimolar amounts of PEG-conjugated pOVA as indicated. In some experiments, mice were also treated with unconjugated pOVA + 50 µg of lipopolysaccharide (LPS) or pOVA-PEG + 50 µg of LPS. On day 7, splenocytes were isolated, and OVA-TCR^+ CD4^+ T cells were identified by an anti-KJ1.26 antibody, recognizing the OVA-specific TCR on transferred DO11.10 cells.
To investigate the impact of inflammatory conditions, we analyzed the effect of lipopolysaccharide (LPS) application on the response of transferred unmanipulated OVA-TCR^+ CD4^+ cells.
24 h after adoptive transfer of OVA-specific CD4^+ T cells, recipients received i.v. PBS (control), 5 µg of pOVA or equimolar amounts of pOVA-PEG conjugates with or without additional LPS. After 6 days, splenocytes were isolated and Foxp3 expression as well as TNF production was assessed by flow cytometry. (A) % TNF^+ cells gated on OVA-specific CD4^+ cells, mean ± SD of data from three independent experiments. (B) % KJ1.26^+ (OVA-specific) splenocytes among total CD4^+ population; mean ± SD of pooled data from three independent experiments. […]

OVA-TCR+ CD4+ T cells [3] = assay: Analysis of bioavailability: vaccination 3 days before transfer of CFSE-labeled OVA-specific CD4+ cells; parameters: species or system BALB/c mice; conditions: mouse, in vivo, iv
Protocol: To test for the presence of bioactive material in the organism after an extended period of time (bioavailability), recipients were treated with pOVA or equimolar amounts of PEGylated peptides 3 days before transfer of CFSE-labeled OVA-specific CD4^+ cells. Proliferation was assessed 6 days after CD4^+ T cell transfer by dilution of CFSE intensity using flow cytometry.
We next addressed the question whether PEGylation leads to an extended half-life (bioavailability) of the antigenic peptide in the organism and whether size and structure of the PEG molecule matter. For this, we tested the degree of proliferation after vaccination with a single i.v. injection of pOVA or conjugates at 3 days prior to transfer of OVA-specific T cells ( Figure 3A ). Six days after cell transfer, splenocytes were isolated and proliferation of OVA-TCR^+ CD4^+ T cells was analyzed according to CFSE content.
Figure 3 Conjugation of pOVA to the macromolecular carrier PEG extends peptide bioavailability. (A) Set-up for analysis of the bioavailability. (B) OVA-specific CD4^+ CFSE-labeled T cells were transferred into BALB/c mice three days after i.v. peptide vaccination with unconjugated pOVA or equimolar amounts of pOVA-PEG conjugates. After 6 days proliferation was assessed by flow cytometry. Cells from spleen and pLN were gated on OVA-TCR^+ CD4^+ T cells. […]

OVA-TCR+ CD4+ T cells [4] = assay: Frequency of OVA-TCR+ CD4+ cells among total CD4+ splenocytes (deletion); assay type: in vivo, BALB/c mice; conditions: 5 µg i.v. or equimolar, day 6; compared to PBS (PEG20 also to pOVA); n = 5-11
Protocol: as §1
Besides Treg expansion/induction and anergy, deletion of antigen-specific T effector cells by activation-induced cell death also dampens the immune response. […] Thus, vaccination with this conjugate is more efficient in triggering activation-induced death compared to native peptide or pOVA-PEG-tetramer vaccination where some death might outbalance induced proliferation.
Figure 8 Administration of pOVA-PEG20 reduces the frequency of OVA-TCR^+ CD4^+ T cells among total CD4^+ splenocytes. OVA-specific CD4^+ cells were transferred into BALB/c mice. After 24 h, mice received i.v. PBS (control), 5 µg of pOVA or equimolar amounts of pOVA-PEG conjugates. After 6 days, the frequency of OVA-TCR^+ CD4^+ cells among total CD4^+ T cells was assessed using flow cytometry. […]

[5] = tested on: TNF-producing OVA-TCR+ CD4+ T cells; assay type: in vivo
[6] = tested on: Th1-driven DTH footpad swelling; assay: Delayed-type hypersensitivity (DTH) model, footpad swelling; assay type: in vivo, BALB/c mice; conditions: 5 µg i.v. or equimolar; Th1 transfer day 7; footpad challenge pOVA/IFA; 8 days; n = 15
Protocol: pOVA-specific CD4^+ cells were adoptively transferred into BALB/c mice, which were treated i.v. with PBS (control), 5 μg of pOVA or equimolar amounts of pOVA-PEG20 24 h later (tolerization). To induce the effector phase, in vitro generated pOVA-specific Th1 cells were transferred into the recipients on day 7. After 24 h, pOVA in IFA or PBS/IFA were injected into the left or right hind footpad, respectively. Footpad swelling was monitored for 8 consecutive days and expressed as Δ footpad thickness.
To investigate whether pOVA-PEG20 is able to prevent the development of an inflammatory reaction in vivo, we used a DTH model based on the transfer of pre-formed Th1 cells, intra-footpad challenge with pOVA and measurement of footpad swelling for 8 days. […] As discussed below, a clearer superiority of PEGylated peptide over native peptide in tolerance induction was found in a more physiological EAE-model studied in parallel ([35]).
OVA-specific CD4^+ cells were adoptively transferred into BALB/c mice, which were treated i.v. with PBS (control), 5 μg of pOVA or equimolar amounts of pOVA-PEG20 24 h later. On day 7, in vitro generated OVA-specific Th1 cells were transferred into the recipients. […] The difference in footpad thickness after challenge was monitored for eight consecutive days. […]

Which results are given for ISQAVHAAHAEINEAGR [pOVA]?
De novo induction of Foxp3+ Tregs from Treg-depleted CD4+ cells [1]: able to induce Foxp3^+ Tregs in all organs analyzed; Proliferative response of transferred Th1 cells (OVA-specific Th1 cells): moderate proliferative response; Foxp3+ among OVA-TCR+ CD4+ splenocytes, representative FACS dot plot (Fig. 4A gate number) ([2]; 5 µg i.v. (based on peptide amount), 6 days after treatment, single representative plot): 24.7%; Frequency of splenic OVA-specific Foxp3+ regulatory T cells (in words) ([2]; 5 µg i.v. or equimolar, pOVA, PEG40, tetramer compared to PBS, PEG20 compared to pOVA): significant increase; Increase in Foxp3+ cells upon vaccination in presence of LPS (OVA-TCR+ CD4+ cells): completely suppressed; T cell proliferation when vaccinated 3 days prior to T cell transfer (bioavailability) (OVA-TCR+ CD4+ T cells [3]): Little T cell proliferation; Frequency of OVA-specific (OVA-TCR+ CD4+) cells among host CD4+ splenocytes (OVA-TCR+ CD4+ T cells [4]): not reducing; Mean ratio % TNF+/% Foxp3+ cells (effector cell/Treg ratio) ([5]; 5 µg i.v. or equimolar, 6 days, spleen, gated on OVA-TCR+ CD4+ cells, n = 5-8): 2.23; IL-10 staining of OVA-specific cells after restimulation, representative plot gate number (Suppl. Fig. 3) ([5]; 5 µg in vivo (based on peptide amount), day 7, lower pair of plots): 0.58; Tolerance in Th1-driven DTH model (Δ footpad thickness) [6]: partial tolerance
